Results: US9029389B2 (Institut Pasteur Korea, priority 2011, dated 2015)
pIC50: −log10 of the molar value.

Molecular target: T1, Human 5-lipoxygenase (Homo sapiens, UniProt P09917)
T1 construct: purchased Cayman 60402; host or cells: insect cells
T1 sequence (P09917 1-674): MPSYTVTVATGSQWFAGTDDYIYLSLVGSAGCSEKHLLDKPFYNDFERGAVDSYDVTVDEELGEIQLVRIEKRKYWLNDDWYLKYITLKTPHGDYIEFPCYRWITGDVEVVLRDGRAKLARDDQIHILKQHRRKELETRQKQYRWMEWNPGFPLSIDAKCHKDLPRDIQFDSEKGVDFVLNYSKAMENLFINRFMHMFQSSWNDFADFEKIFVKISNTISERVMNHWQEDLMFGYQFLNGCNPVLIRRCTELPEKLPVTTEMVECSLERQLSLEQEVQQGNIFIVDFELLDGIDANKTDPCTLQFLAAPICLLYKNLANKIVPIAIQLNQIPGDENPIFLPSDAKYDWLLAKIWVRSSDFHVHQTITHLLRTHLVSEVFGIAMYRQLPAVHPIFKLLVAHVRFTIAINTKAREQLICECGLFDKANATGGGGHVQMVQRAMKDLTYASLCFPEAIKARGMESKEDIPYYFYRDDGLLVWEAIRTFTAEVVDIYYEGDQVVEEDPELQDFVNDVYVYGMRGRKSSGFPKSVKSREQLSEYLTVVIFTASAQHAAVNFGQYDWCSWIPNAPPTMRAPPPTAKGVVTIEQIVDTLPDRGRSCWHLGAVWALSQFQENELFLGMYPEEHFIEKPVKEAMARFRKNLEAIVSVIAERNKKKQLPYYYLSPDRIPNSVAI
Experiment: Activity of compounds against 5-LO enzyme (LTB4 measurement and/or fluorescence method)
Type: biochemical
Conditions: for inhibition at 10 µM: 5-LO, single concentration of 10 uM in duplicate; for pIC50: 6 or 11 point dose response in duplicate
How it was run: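 Insect-cell human 5-LO preincubated 15 min at RT with compound (pH 7.4, 2 mM CaCl2, 0.1 mM ATP, 1% DMSO), then 3 uM arachidonic acid for 5 min at 37 °C; LTB4 quantified by EIA and/or LC/MS/MS. Alternatively, fluorescence of 5-HpETE via H2DCFDA, 100 uM ATP, 3 uM arachidonic acid, 5 min, RT; single 10 uM screen then 6- or 11-point IC50.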

SMILES	inhibition at 10 µM [%]	pIC50
CCc1nc2ccc(Cl)cn2c1C(=O)NCc1ccc(N2CCN(Cc3ccc(F)cc3)CC2)cc1 [compound 130, 6-Chloro-2-ethyl-N-(4-(4-(4-fluorobenzyl)piperazin-1-yl)benzyl)imidazo[1,2-a]pyridine-3-carboxamide]	> 69	4.70 to 6.00
CCc1nc2ccc(OC)cn2c1C(=O)NCc1ccc(N2CCOCC2)cc1 [compound 272]	< 40	
CCc1nc2cc(Cl)ccn2c1C(=O)NCc1ccc(-n2cc3c(c2)CCCC3)cc1 [compound 217, 7-Chloro-2-ethyl-N-(4-(4,5,6,7-tetrahydro-2H-isoindol-2-yl)benzyl)imidazo[1,2-a]pyridine-3-carboxamide]	> 69	4.70 to 6.00
CCOC(=O)C1CCN(c2ccc(CNC(=O)c3c(CC)nc4cc(Cl)ccn34)cc2)CC1 [compound 270, Ethyl 1-(4-((7-chloro-2-ethylimidazo[1,2-a]pyridine-3-carboxamido)methyl)phenyl)piperidine-4-carboxylate]	40 to 69	
CCc1nc2cc(Cl)ccn2c1C(=O)NCc1ccc(O)cc1 [compound 88, 7-Chloro-2-ethyl-N-(4-hydroxybenzyl)imidazo[1,2-a]pyridine-3-carboxamide]	< 40	
CCc1nc2ccc(F)cn2c1C(=O)NCc1ccc(N2CCOCC2)cc1 [compound 241, 2-Ethyl-6-fluoro-N-(4-morpholinobenzyl)imidazo[1,2-a]pyridine-3-carboxamide]	< 40	
CCc1nc2cc(Cl)ccn2c1C(=O)NCc1ccc(N2CCC(C(=O)N(C)C)CC2)cc1 [compound 294, 7-Chloro-N-(4-(4-(dimethylcarbamoyl)piperidin-1-yl)benzyl)-2-ethylimidazo[1,2-a]pyridine-3-carboxamide]	< 40	
CCc1nc2ccc(Cl)cn2c1C(=O)NCc1ccc(N2CCN(C)CC2)cc1 [compound 105, 6-Chloro-2-ethyl-N-(4-(4-methylpiperazin-1-yl)benzyl)imidazo[1,2-a]pyridine-3-carboxamide]	< 40	
CCc1nc2ccccn2c1C(=O)NCc1ccc(OCC(C)C)cc1 [compound 54, 2-Ethyl-N-(4-isobutoxybenzyl)imidazo[1,2-a]pyridine-3-carboxamide]	< 40	
CCc1nc2cc(Cl)ccn2c1C(=O)NCc1ccc(N2CCC(C)CC2)cc1 [compound 195, 7-Chloro-2-ethyl-N-(4-(4-methylpiperidin-1-yl)benzyl)imidazo[1,2-a]pyridine-3-carboxamide]	40 to 69	
COc1ccc(CNC(=O)c2c(C)nc3ccccn23)cc1 [compound 7, N-(4-Methoxybenzyl)-2-methylimidazo[1,2-a]pyridine-3-carboxamide]	< 40	
CCc1nc2ccc(Cl)cn2c1C(=O)NCc1ccc(C2CCN(C(=O)c3ccc(F)cc3)CC2)cc1 [compound 326, 6-chloro-2-ethyl-N-(4-(1-(4-fluorobenzoyl)piperidin-4-yl)benzyl)imidazo[1,2-a]pyridine-3-carboxamide]	< 40	
CCc1nc2ccc(Cl)cn2c1C(=O)N1CCCC(OCc2ccc(OC(F)(F)F)cc2)C1 (stereo not shown) [compound 382, (6-chloro-2-ethylimidazo[1,2-a]pyridin-3-yl)(3-(4-(trifluoromethoxy)benzyloxy)-piperidin-1-yl)methanone]		4.70 to 6.00
CCc1nc2ccc(Cl)cn2c1C(=O)NCc1ccc2c(ccn2C)c1 [compound 67]	< 40	
CCc1nc2cc(Cl)ccn2c1C(=O)N1CCC(Oc2ccc(OC(F)(F)F)cc2)CC1 [compound 380, (7-Chloro-2-ethylimidazo[1,2-a]pyridin-3-yl)(4-(4-(trifluoromethoxy)phenoxy)piperidin-1-yl)methanone]		> 6.00
O=C(NCc1ccc(-c2ccccc2)cc1)c1c(C(F)(F)F)nc2ccc(Cl)cn12 [compound 80, N-(Biphenyl-4-ylmethyl)-6-chloro-2-(trifluoromethyl)imidazo[1,2-a]pyridine-3-carboxamide]	< 40	
CCc1nc2cc(Cl)ccn2c1C(=O)NCc1ccc(N2CCC(OCc3ccc(F)cc3)CC2)cc1 [compound 301, 7-Chloro-2-ethyl-N-(4-(4-(4-fluorobenzyloxy)piperidin-1-yl)benzyl)imidazo[1,2-a]pyridine-3-carboxamide]	40 to 69	
CCc1nc2cc(Cl)ccn2c1C(=O)NCc1ccc(-c2ccc(OC(F)(F)F)cc2)cc1 [compound 112, 7-Chloro-2-ethyl-N-((4′-(trifluoromethoxy)biphenyl-4-yl)methyl)imidazo[1,2-a]pyridine-3-carboxamide]	40 to 69	

The next lines start with the values.

inhibition at 10 µM [%]	pIC50	SMILES
40 to 69		CCc1nc2cc(Cl)ccn2c1C(=O)NCc1ccc(-c2ccc(C#N)cc2C)cc1 [compound 109, 7-Chloro-N-((4′-cyano-2′-methylbiphenyl-4-yl)methyl)-2-ethylimidazo[1,2-a]pyridine-3-carboxamide]
40 to 69		CCc1nc2ccc(Cl)cn2c1C(=O)NCc1ccc(-c2ccc(C#N)cc2C)cc1 [compound 104, 6-Chloro-N-((4′-cyano-2′-methylbiphenyl-4-yl)methyl)-2-ethylimidazo[1,2-a]pyridine-3-carboxamide]
40 to 69		Cc1nc2ccccn2c1C(=O)NCc1ccc(-c2ccccc2)cc1 [compound 20, N-(Biphenyl-4-ylmethyl)-2-methylimidazo[1,2-a]pyridine-3-carboxamide]
> 69	< 4.70	CCc1nc2cc(Cl)ccn2c1C(=O)NCc1ccc(N2CCC(COC(F)F)CC2)cc1 [compound 295, 7-Chloro-N-(4-(4-((difluoromethoxy)methyl)piperidin-1-yl)benzyl)-2-ethylimidazo[1,2-a]pyridine-3-carboxamide]
40 to 69		CCc1nc2cc(Cl)c(Cl)cn2c1C(=O)NCc1ccc(N2CCN(Cc3ccc(F)cc3)CC2)cc1 [compound 179, 6,7-Dichloro-2-ethyl-N-(4-(4-(4-fluorobenzyl)piperazin-1-yl)benzyl)imidazo1,2-al pyridine-3-carboxamide]
< 40		CCc1nc2ccc(Cl)cn2c1CNCCc1ccccn1 [compound 342, N-((6-chloro-2-ethylimidazo[1,2-a]pyridin-3-yl)methyl)-2-(pyridin-2-yl)ethanamine]
40 to 69		CCc1nc2ccc(Cl)cn2c1C(=O)NCc1ccc(N2CCC(Oc3ccc(OC(F)(F)F)cc3)CC2)cc1 [compound 122, 6-Chloro-2-ethyl-N-(4-(4-(4-(trifluoromethoxy)phenoxy)piperidin-1-yl)benzyl)imidazo[1,2-a]pyridine-3-carboxamide]
< 40		CCc1nc2cc(OC)ccn2c1C(=O)NCc1ccc(N2CCN(c3ccc(F)cc3)CC2)cc1 [compound 264, 2-Ethyl-N-(4-(4-(4-fluorophenyl)piperazin-1-yl)benzyl)-7-methoxyimidazo[1,2-a]pyridine-3-carboxamide]
< 40		Cc1nc2ccccn2c1C(=O)NCC1CCCCC1 [compound 9, N-(Cyclohexylmethyl)-2-methylimidazo[1,2-a]pyridine-3-carboxamide]
40 to 69		CCc1nc2cc(Cl)ccn2c1C(=O)NCc1ccc(-c2cccc(C#N)c2)cc1 [compound 101, 7-Chloro-N-((3′-cyanobiphenyl-4-yl)methyl)-2-ethylimidazo[1,2-a]pyridine-3-carboxamide]
